Patent publication US7462600B2, “Macrolides” (Pfizer Inc, priority 2004, dated 2008)
≈ marks a conversion by molar mass, not a printed value.

Tests used:
Type in all cases: cell-based
[1] = system: Streptococcus pyogenes 1079; test: MIC, microtiter broth dilution (NCCLS M100-S14), S. pyogenes 1079 (ermB); settings: Streptococcus pyogenes 1079
Outline: (§1)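 Steps: dissolve compound in DMSO to 40 mg/ml stock; dilute in broth across microtiter trays; inoculate strains; record MIC per NCCLS M100-S14.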

[2] = system: Streptococcus pneumoniae 1016; test: MIC, microtiter broth dilution (NCCLS M100-S14), S. pneumoniae 1016 (susceptible); settings: Streptococcus pneumoniae 1016
Outline: as §1

[3] = system: Streptococcus pneumoniae 1175; settings: Streptococcus pneumoniae 1175; microtiter broth dilution
Outline: as §1

[4] = system: Streptococcus pneumoniae 1095; settings: Streptococcus pneumoniae 1095; microtiter broth dilution
Outline: as §1

[5] = system: Haemophilus influenzae 1218; test: MIC, microtiter broth dilution (NCCLS M100-S14), H. influenzae 1218 (susceptible); settings: Haemophilus influenzae 1218
Outline: as §1

| Structure (SMILES) | MIC S. pyogenes 1079 [1] | MIC S. pneumo. 1016 [2] | MIC S. pneumo. 1175 [3] | MIC S. pneumo. 1095 [4] | MIC H. influenzae 1218 [5] |
| --- | --- | --- | --- | --- | --- |
| CCC1OC(=O)C(C)C(=O)C(C)C(OC2OC(C)CC(N(C)C)C2O)C(C)(OC)CC(C)C(=O)C(C)C2N(C3CN(Cc4c(OC)cnc5ncccc45)C3)C(=O)OC12C (centres unmarked) [Example 1.72, 3-descladinosyl-11,12-dideoxy-6-O-methyl-3-oxo-12,11-(oxycarbonyl-(1-(3-methoxy-1,8-naphthyridine-4-methyl)-azetidin-3-yl)-imino)-erythromycin A] | <0.063 µg/mL | <0.063 µg/mL | <0.063 µg/mL | <0.063 µg/mL | 1 µg/mL (≈ 1.19 µM) |
| CC[C@H]1OC(=O)[C@H](C)C(=O)[C@H](C)[C@@H](O[C@@H]2O[C@H](C)C[C@H](N(C)C)[C@H]2O)[C@](C)(OC)C[C@@H](C)C(=O)[C@H](C)[C@H]2N(C3CN(Cc4c(C#N)cnc5ccccc45)C3)C(=O)O[C@]12C [Example 1.73, 3-descladinosyl-11,12-dideoxy-6-O-methyl-3-oxo-12,11-(oxycarbonyl-(1-(quinoline-3-carbonitrile-4-methyl)-azetidin-3-yl)-imino)erythromycin A] | 0.125 µg/mL (≈ 0.15 µM) | <0.063 µg/mL | <0.063 µg/mL | <0.063 µg/mL | 2 µg/mL (≈ 2.4 µM) |
| CC[C@H]1OC(=O)[C@H](C)C(=O)[C@H](C)[C@@H](O[C@@H]2O[C@H](C)C[C@H](N(C)C)[C@H]2O)[C@](C)(OC)C[C@@H](C)C(=O)[C@H](C)[C@H]2N(C3CN(Cc4c(Br)cnc5nccnc45)C3)C(=O)O[C@]12C [Example 1.74, 3-descladinosyl-11,12-dideoxy-6-O-methyl-3-oxo-12,11-(oxycarbonyl-(1-(7-bromopyrido[3,2-b]pyrazine-8-methyl)-azetidin-3-yl)imino)-erythromycin A] | 0.5 µg/mL (≈ 0.562 µM) | <0.063 µg/mL | <0.063 µg/mL | <0.063 µg/mL | 1 µg/mL (≈ 1.12 µM) |
| CCC1OC(=O)C(C)C(=O)C(C)C(OC2OC(C)CC(N(C)C)C2O)C(C)(OC)CC(C)C(=O)C(C)C2N(C3CN(Cc4c(Br)cnc5ncccc45)C3)C(=O)OC12C (centres unmarked) [Example 1.75, 3-descladinosyl-11,12-dideoxy-6-O-methyl-3-oxo-12,11-(oxycarbonyl-(1-(3-bromo-1,8-naphthyridine-4-methyl)-azetidin-3-yl)-imino)-erythromycin A] | <0.063 µg/mL | <0.063 µg/mL | <0.063 µg/mL | <0.063 µg/mL | 1 µg/mL (≈ 1.12 µM) |
| CCC1OC(=O)C(C)C(=O)C(C)C(OC2OC(C)CC(N(C)C)C2O)C(C)(OC)CC(C)C(=O)C(C)C2N(C3CN(Cc4c(Cl)cnc5ncccc45)C3)C(=O)OC12C (centres unmarked) [Example 1.76, 3-descladinosyl-11,12-dideoxy-6-O-methyl-3-oxo-12,11-(oxycarbonyl-(1-(3-chloro-1,8-naphthyridine-4-methyl)-azetidin-3-yl)-imino)-erythromycin A] | 0.125 µg/mL (≈ 0.148 µM) | <0.063 µg/mL | <0.063 µg/mL | <0.063 µg/mL | 0.5 µg/mL (≈ 0.592 µM) |
| CCC1OC(=O)C(C)C(=O)C(C)C(OC2OC(C)CC(N(C)C)C2O)C(C)(OC)CC(C)C(=O)C(C)C2N(C3CN(Cc4ccncc4Br)C3)C(=O)OC12C (centres unmarked) [Example 1.77, 3-descladinosyl-11,12-dideoxy-6-O-methyl-3-oxo-12,11-(oxycarbonyl-(1-(3-bromopyridine-4-methyl)-azetidin-3-yl)-imino)-erythromycin A] | 1 µg/mL (≈ 1.19 µM) | <0.063 µg/mL | <0.063 µg/mL | <0.063 µg/mL | 0.5 µg/mL (≈ 0.597 µM) |
| CCC1OC(=O)C(C)C(=O)C(C)C(OC2OC(C)CC(N(C)C)C2O)C(C)(OC)CC(C)C(=O)C(C)C2N(C3CN(Cc4ccncc4F)C3)C(=O)OC12C (centres unmarked) [Example 1.78, 3-descladinosyl-11,12-dideoxy-6-O-methyl-3-oxo-12,11-(oxycarbonyl-(1-(3-fluoropyridine-4-methyl)-azetidin-3-yl)-imino)-erythromycin A] | 4 µg/mL (≈ 5.15 µM) | <0.063 µg/mL | <0.063 µg/mL | <0.063 µg/mL | 1 µg/mL (≈ 1.29 µM) |
| CCC1OC(=O)C(C)C(=O)C(C)C(OC2OC(C)CC(N(C)C)C2O)C(C)(OC)CC(C)C(=O)C(C)C2N(C3CN(Cc4ccncc4Cl)C3)C(=O)OC12C (centres unmarked) [Example 1.79, 3-descladinosyl-11,12-dideoxy-6-O-methyl-3-oxo-12,11-(oxycarbonyl-(1-(3-chloropyridine-4-methyl)-azetidin-3-yl)-imino)-erythromycin A] | 4 µg/mL (≈ 5.04 µM) | <0.063 µg/mL | <0.063 µg/mL | <0.063 µg/mL | 1 µg/mL (≈ 1.26 µM) |
| CCC1OC(=O)C(C)C(=O)C(C)C(OC2OC(C)CC(N(C)C)C2O)C(C)(OC)CC(C)C(=O)C(C)C2N(C3CN(C(COC)c4ccnc5ncccc45)C3)C(=O)OC12C (stereo not drawn) [Example 1.80, 3-descladinosyl-11,12-dideoxy-6-O-methyl-3-oxo-12,11-(oxycarbonyl-(1-(2-(methoxy)-1S-(1,8-napthyridin-4-yl)-ethyl)-azetidin-3-yl)-imino)-erythromycin A] | 16 µg/mL (≈ 18.7 µM) | <0.063 µg/mL | 0.125 µg/mL (≈ 0.146 µM) | 1 µg/mL (≈ 1.17 µM) | 4 µg/mL (≈ 4.68 µM) |
| CCC1OC(=O)C(C)C(=O)C(C)C(OC2OC(C)CC(N(C)C)C2O)C(C)(OC)CC(C)C(=O)C(C)C2N(C3CN(Cc4ccc(=O)n5ccccc45)C3)C(=O)OC12C (centres unmarked) [Example 1.82, 3-descladinosyl-11,12-dideoxy-6-O-methyl-3-oxo-12,11-(oxycarbonyl-(1-(4H-quinolizin-4-one-1-methyl)-azetidin-3-yl)-imino)-erythromycin A] | 4 µg/mL (≈ 4.85 µM) | <0.063 µg/mL | <0.063 µg/mL | <0.063 µg/mL | 0.5 µg/mL (≈ 0.606 µM) |
| CCC1OC(=O)C(C)C(=O)C(C)C(OC2OC(C)CC(N(C)C)C2O)C(C)(OC)CC(C)C(=O)C(C)C2N(C3CN(Cc4cccn5nccc45)C3)C(=O)OC12C (centres unmarked) [Example 1.83, 3-descladinosyl-11,12-dideoxy-6-O-methyl-3-oxo-12,11-(oxycarbonyl-(1-(H-pyrazolo[1,5-a]pyridine-4-methyl)-azetidin-3-yl)-imino)-erythromycin A] | 4 µg/mL (≈ 5.01 µM) | <0.063 µg/mL | <0.063 µg/mL | <0.063 µg/mL | 1 µg/mL (≈ 1.25 µM) |
| CCC1OC(=O)C(C)C(=O)C(C)C(OC2OC(C)CC(N(C)C)C2O)C(C)(OC)CC(C)C(=O)C(C)C2N(C3CN(Cc4ccnc5c(OC)cccc45)C3)C(=O)OC12C (centres unmarked) [Example 1.84, 3-descladinosyl-11,12-dideoxy-6-O-methyl-3-oxo-12,11-(oxycarbonyl-(1-(8-methoxyquinoline-4-methyl)-azetidin-3-yl)-imino)erythromycin A] | 8 µg/mL (≈ 9.53 µM) | <0.063 µg/mL | <0.063 µg/mL | <0.063 µg/mL | 2 µg/mL (≈ 2.38 µM) |
| CCC1OC(=O)C(C)C(=O)C(C)C(OC2OC(C)CC(N(C)C)C2O)C(C)(OC)CC(C)C(=O)C(C)C2N(C3CN(Cc4c(OC)ccc5ccccc45)C3)C(=O)OC12C (centres unmarked) [Example 1.86, 3-descladinosyl-11,12-dideoxy-6-O-methyl-3-oxo-12,11-(oxycarbonyl-(1-(2-methoxynaphthalene-1-methyl)-azetidin-3-yl)-imino)-erythromycin A] | 1 µg/mL (≈ 1.19 µM) | <0.063 µg/mL | <0.063 µg/mL | 0.125 µg/mL (≈ 0.149 µM) | 1 µg/mL (≈ 1.19 µM) |
| CCC1OC(=O)C(C)C(=O)C(C)C(OC2OC(C)CC(N(C)C)C2O)C(C)(OC)CC(C)C(=O)C(C)C2N(C3CN(Cc4ccnc5[nH]c(C6CC6)nc45)C3)C(=O)OC12C (centres unmarked) [Example 1.89, 3-descladinosyl-11,12-dideoxy-6-O-methyl-3-oxo-12,11-(oxycarbonyl-(1-(2-cyclopropyl-3H-imidazo[4,5-b]pyridine-7-methyl)-azetidin-3-yl)-imino)-erythromycin A] | 1 µg/mL (≈ 1.19 µM) | <0.063 µg/mL | <0.063 µg/mL | 0.5 µg/mL (≈ 0.596 µM) | 4 µg/mL (≈ 4.77 µM) |
| CCC1OC(=O)C(C)C(=O)C(C)C(OC2OC(C)CC(N(C)C)C2O)C(C)(OC)CC(C)C(=O)C(C)C2N(C3CN(Cc4ccnc5ccc(OC)cc45)C3)C(=O)OC12C (centres unmarked) [Example 1.90, 3-descladinosyl-11,12-dideoxy-4-O-methyl-3-oxo-12,11-(oxycarbonyl-(1-(6-methoxyquinoline-4-methyl)-azetidin-3-yl)-imino)-erythromycin A] | 2 µg/mL (≈ 2.38 µM) | <0.063 µg/mL | <0.063 µg/mL | 0.125 µg/mL (≈ 0.149 µM) | 2 µg/mL (≈ 2.38 µM) |
| CCC1OC(=O)C(C)C(=O)C(C)C(OC2OC(C)CC(N(C)C)C2O)C(C)(OC)CC(C)C(=O)C(C)C2N(C3CN(Cc4cccc5ccccc45)C3)C(=O)OC12C (centres unmarked) [Example 1.91, 3-descladinosyl-11,12-dideoxy-6-O-methyl-3-oxo-12,11-(oxycarbonyl-(1-(naphthalene-1-methyl)-azetidin-3-yl)-imino)-erythromycin A] | 8 µg/mL (≈ 9.9 µM) | <0.063 µg/mL | <0.063 µg/mL | 0.125 µg/mL (≈ 0.155 µM) | 1 µg/mL (≈ 1.24 µM) |
